What all share (assay type): biochemical
For assay [1], the target named is T1, human neutrophil elastase (Homo sapiens, UniProt P08246).
T1 construct: purchased Serva Electrophoresis, Germany
T1 sequence (P08246 30-267): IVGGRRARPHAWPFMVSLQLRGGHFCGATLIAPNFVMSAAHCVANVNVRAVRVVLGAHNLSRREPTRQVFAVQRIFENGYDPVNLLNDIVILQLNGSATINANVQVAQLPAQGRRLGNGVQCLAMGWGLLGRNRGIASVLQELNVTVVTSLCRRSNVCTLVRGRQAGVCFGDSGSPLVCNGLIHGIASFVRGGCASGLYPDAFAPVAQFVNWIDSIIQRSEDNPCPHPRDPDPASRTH
Kind of assay: Inhibition of human neutrophil elastase (hydrolysis of MeOSuc-AAPV-pNA). The note with it: substrate MeOSuc-AAPV-pNA 0.3 mM, enzyme 10 nM, 37° C., pH 8; read-out: Human neutrophil elastase (hNE) IC50. As to the method: 2.2 Inhibition of Human Neutrophil Elastase
The ability of the peptides of the invention to inhibit the hydrolysis activity of human neutrophil elastase (Serva Electrophoresis, Germany) using the synthetic tetrapeptidic substrate MeOSuc-AAPV-pNA (Bachem, Switzerland) was determined as follows:
The above substrate (0.3 mM) and human neutrophil elastase (10 nM) were incubated at 37° C. with serial dilutions of the peptides (1% DMSO final) in assay buffer (50 mM Tris, pH 8, 300 mM NaCl, 0.01% Tween20). The release of pNA was followed by monitoring the change in absorbance at 405 nm for 30 minutes. Control assays with the same assay set-up as above, but without peptide, ran linearly. The dose-response data were fitted to the 4-parameter Hill equation providing the IC50 value using Graphpad (Prism 5).

The next assay has as its target T2, human proteinase 3 (Homo sapiens, UniProt P24158).
T2 construct: purchased Elastin Products Company, USA
T2 sequence (P24158 28-248): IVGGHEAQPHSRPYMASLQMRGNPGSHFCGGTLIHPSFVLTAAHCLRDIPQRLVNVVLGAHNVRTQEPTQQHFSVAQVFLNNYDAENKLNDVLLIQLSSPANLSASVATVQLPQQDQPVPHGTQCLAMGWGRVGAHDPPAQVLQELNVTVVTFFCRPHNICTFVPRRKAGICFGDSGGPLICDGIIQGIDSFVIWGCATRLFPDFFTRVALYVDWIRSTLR
Kind of assay: Inhibition of human proteinase 3 (substrate Boc-Ala-Ala-Nva-SBzl). The following applies: for hNE/hPr3 selectivity: ratio of hPr3 IC50 to hNE IC50; for IC50: substrate Boc-Ala-Ala-Nva-SBzl 1 mM, enzyme 10 nM, 37° C., pH7.4, read-out: Human proteinase 3 (hPr3) IC50. As to the method: 2.4 Inhibition of Human Proteinase 3
The inactivation of human proteinase 3 (Elastin Products Company, USA) by the peptides of the invention using synthetic tripeptidic substrate Boc-Ala-Ala-Nva-SBzl (Elastin Products Company, USA) was determined as follows:
The above substrate (1 mM), 4,4′-dithiodipyridine (250 μM) and human proteinase 3 (10 nM) were incubated at 37° C. with serial dilutions of the peptides (0.5% DMSO final) in assay buffer (50 mM Tris, pH7.4, 150 mM NaCl, 0.01% Tween20). The reaction process was followed by monitoring the change in absorbance at 340 nm for 30 minutes. Control assays with the same assay set-up as above, but without peptide, ran linearly. The dose-response data were fitted to the 4-parameter Hill equation providing the IC50 value using Graphpad (Prism 5).

Assay [2] concerns the target T3, porcine pancreatic elastase (Sus scrofa, UniProt P00772).
T3 construct: purchased Sigma, USA
Kind of assay: Inhibition of porcine pancreatic elastase (hydrolysis of MeOSuc-AAA-pNA). The note with it: for hNE/PPE selectivity: ratio of PPE IC50 to hNE IC50; for IC50: substrate MeOSuc-AAA-pNA 1 mM, enzyme 15 nM, 37° C., pH8, read-out: Porcine pancreatic elastase (PPE) IC50. The method, then: 2.3 Inhibition of Porcine Pancreatic Elastase
The ability of the peptides of the invention to inhibit the hydrolysis activity of porcine pancreatic elastase (Sigma, USA) using the synthetic tripeptidic substrate MeOSuc-AAA-pNA (Bachem, Switzerland) was determined as follows:
The above substrate (1 mM) and […] porcine pancreatic elastase (15 nM) were incubated at 37° C. with serial dilutions of the peptides (0.5% DMSO final) in assay buffer (50 mM Tris, pH8, 100 mM NaCl, 0.01% Tween20). The release of pNA was followed by monitoring the change in absorbance at 405 nm for 30 minutes. Control assays with the same assay set-up as above, but without peptide, ran linearly. The dose-response data were fitted to the 4-parameter Hill equation providing the IC50 value using Graphpad (Prism 5).

Where a SMILES comes first, the peptide text is derived from it. [ ]: non-standard residue; d: D form. The star is where a group is joined. Oic = O=C(O)[C@@H]1C[C@@H]2CCCC[C@@H]2N1; Gly(octyl) = CCCCCCCC[C@H](N)C(=O)O; N(CH2CH2COOH)Gly = O=C(O)CCNCC(=O)O; β3hQ = NC(=O)CC[C@H](N)CC(=O)O; Octanoyl = CCCCCCCC(=O)*; Dab = NCC[C@H](N)C(=O)O; Dap = NC[C@H](N)C(=O)O

T3 sequence (P00772 27-266): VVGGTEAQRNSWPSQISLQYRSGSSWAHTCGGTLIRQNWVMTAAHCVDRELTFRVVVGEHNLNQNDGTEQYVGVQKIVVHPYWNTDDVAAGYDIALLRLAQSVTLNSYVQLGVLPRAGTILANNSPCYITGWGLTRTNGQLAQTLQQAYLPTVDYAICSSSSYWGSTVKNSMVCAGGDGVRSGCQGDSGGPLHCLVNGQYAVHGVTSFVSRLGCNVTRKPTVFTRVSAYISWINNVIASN

In general, IC50 refers to the concentration that gives 50% inhibition. For `CCCCCCCC[C@@H]1NC(=O)[C@@H]2CCCN2C(=O)[C@H]2CCCN2C(=O)[C@H]([C@@H](C)O)NC(=O)[C@H](CCCCN)NC(=O)[C@H](CCC(N)=O)NC(=O)[C@@H]2C[C@@H]3CCCC[C@@H]3N2C(=O)[C@@H]2CCCN2C(=O)[C@H]([C@@H](C)CC)NC(=O)[C@H](CO)NC(=O)[C@H](C)NC(=O)[C@H]([C@@H](C)O)NC(=O)[C@H](CCC(=O)O)NC1=O` [Example 10, Cyclo(-OctGly-Glu-Thr-Ala-Ser-Ile-Pro-Oic-GI n-Lys-Thr-^DPro-Pro-)] (cyclo([Gly(octyl)]ETASIP[Oic]QKT[dP]P)), the IC50 in assay [1] worked out at 0.0073 µM. Besides, on human proteinase 3, the hNE/hPr3 selectivity is recorded as >13699 and the IC50 was > 100 µM. In addition, in assay [2], the hNE/PPE selectivity is on record as 4959 and the IC50 was found to be 36.2 µM.

With `CCCCCCCC[C@@H]1NC(=O)[C@@H]2CCCN2C(=O)[C@H]2CCCN2C(=O)[C@H](CN)NC(=O)[C@H](CCCCN)NC(=O)[C@H](CCC(N)=O)NC(=O)[C@@H]2CCCN2C(=O)[C@@H]2CCCN2C(=O)[C@H]([C@@H](C)CC)NC(=O)[C@H](CO)NC(=O)[C@H](C)NC(=O)[C@H]([C@@H](C)O)NC(=O)[C@H](CCC(=O)O)NC1=O` [Example 2, Cyclo(-OctGly-Glu-Thr-Ala-Ser-Ile-Pro-Pro-Gln-Lys-Dap-^DPro-Pro-)] (cyclo([Gly(octyl)]ETASIPPQK[Dap][dP]P)), the figures for the IC50 (in assay [1]; at human proteinase 3; in assay [2]) were 0.0055 µM, 3.54 µM and 1.2 µM, respectively. Moreover, on human proteinase 3, the hNE/hPr3 selectivity came out at 644. Besides, the hNE/PPE selectivity in assay [2] is 218.

Turning to `CCCCCCCC[C@@H]1NC(=O)[C@@H]2CCCN2C(=O)[C@H]2CCCN2C(=O)[C@H]([C@@H](C)O)NC(=O)[C@H](CCCCN)NC(=O)C[C@H](CCC(N)=O)NC(=O)[C@@H]2CCCN2C(=O)[C@@H]2CCCN2C(=O)[C@H]([C@@H](C)CC)NC(=O)[C@H](CO)NC(=O)[C@H](C)NC(=O)[C@H]([C@@H](C)O)NC(=O)[C@H](CCC(=O)O)NC1=O` [Example 36, Cyclo(-OctGly-Glu-Thr-Ala-Ser-Ile-Pro-Pro-[H-β^3-HGln-OH]-Lys-Thr-^DPro-Pro-)] (cyclo([Gly(octyl)]ETASIPP[β3hQ]KT[dP]P)), in assay [1], the concentration for half-maximal inhibition (IC50) turned out to be 0.0162 µM. Further, at human proteinase 3, the hNE/hPr3 selectivity was determined as 364 and the half-maximal inhibitory concentration (IC50) came out at 5.9 µM. In assay [2], the hNE/PPE selectivity is listed as 685 and the IC50 amounted to 11.1 µM.

Turning to `CCCCCCCC[C@@H]1NC(=O)[C@H](C(C)C)NC(=O)[C@@H](CCCCN)NC(=O)[C@H]([C@@H](C)O)NC(=O)[C@H](CCCCN)NC(=O)[C@H](CCC(N)=O)NC(=O)[C@@H]2CCCN2C(=O)[C@@H]2CCCN2C(=O)[C@H]([C@@H](C)CC)NC(=O)[C@H](CO)NC(=O)[C@H](C)NC(=O)[C@H]([C@@H](C)O)NC(=O)[C@H](CCC(=O)O)NC1=O` [Example 26, Cyclo(-OctGly-Glu-Thr-Ala-Ser-Ile-Pro-Pro-GI n-Lys-Thr-^DLys-Val-)] (cyclo([Gly(octyl)]ETASIPPQKT[dK]V)), the results for the IC50 (in assay [1]; at human proteinase 3; in assay [2]) were 0.0106 µM, 5 µM and 46.8 µM, respectively. The hNE/hPr3 selectivity on human proteinase 3 amounted to 472. Moreover, the hNE/PPE selectivity in assay [2] amounted to 4415.

With `CCCCCCCC(=O)NCC[C@@H]1NC(=O)[C@@H]2CCCN2C(=O)[C@H]2CCCN2C(=O)[C@H]([C@@H](C)O)NC(=O)[C@H](CCCCN)NC(=O)[C@H](CCC(N)=O)NC(=O)[C@@H]2CCCN2C(=O)[C@@H]2CCCN2C(=O)[C@H]([C@@H](C)CC)NC(=O)[C@H](CO)NC(=O)[C@H](C)NC(=O)[C@H]([C@@H](C)O)NC(=O)[C@H](CCC(=O)O)NC1=O` [Example 15, Cyclo(-Dab(Octanoyl)-Glu-Thr-Ala-Ser-Ile-Pro-Pro-Gln-Lys-Thr-^DPro-Pro-)] (cyclo([Dab](Octanoyl)ETASIPPQKT[dP]P)), the half-maximal inhibitory concentration (IC50) was 0.0191 µM in assay [1], 45.2 µM at human proteinase 3 and 92.8 µM in assay [2]. Also, the hNE/hPr3 selectivity at human proteinase 3 turned out to be 2366. The hNE/PPE selectivity in assay [2] was 4859.

As to `CCCCCCCC[C@@H]1NC(=O)[C@@H]2CCCN2C(=O)[C@H]2CCCN2C(=O)[C@H]([C@@H](C)O)NC(=O)[C@H](CCCCN)NC(=O)[C@H](CCC(N)=O)NC(=O)CN(CCC(=O)O)C(=O)[C@@H]2CCCN2C(=O)[C@H]([C@@H](C)CC)NC(=O)[C@H](CO)NC(=O)[C@H](C)NC(=O)[C@H]([C@@H](C)O)NC(=O)[C@H](CCC(=O)O)NC1=O` [Example 34, Cyclo(-OctGly-Glu-Thr-Ala-Ser-Ile-Pro-Nglu-Gln-Lys-Thr-^DPro-Pro-)] (cyclo([Gly(octyl)]ETASIP[N(CH2CH2COOH)Gly]QKT[dP]P)), the IC50 in assay [1] was found to be 0.0303 µM. In addition, at human proteinase 3, the hNE/hPr3 selectivity is recorded as 172 and the 50% inhibitory concentration (IC50) was found to be 5.2 µM. In assay [2], the hNE/PPE selectivity is on record as 512 and the IC50 is 15.5 µM.

As for `CCCCCCCC[C@@H]1NC(=O)[C@H](Cc2ccc(O)cc2)NC(=O)[C@@H](C(C)C)NC(=O)[C@H]([C@@H](C)O)NC(=O)[C@H](CCCCN)NC(=O)[C@H](CCC(N)=O)NC(=O)[C@@H]2CCCN2C(=O)[C@@H]2CCCN2C(=O)[C@H]([C@@H](C)CC)NC(=O)[C@H](CO)NC(=O)[C@H](C)NC(=O)[C@H]([C@@H](C)O)NC(=O)[C@H](CCC(=O)O)NC1=O` [Example 21, Cyclo(-OctGly-Glu-Thr-Ala-Ser-Ile-Pro-Pro-GI n-Lys-Thr-^DVal-Tyr-)] (cyclo([Gly(octyl)]ETASIPPQKT[dV]Y)), the IC50 in assay [1] worked out at 0.0129 µM; on human proteinase 3, 13 µM; in assay [2], 10.6 µM. Also, the hNE/hPr3 selectivity on human proteinase 3 is recorded as 1008. Also, in assay [2], the hNE/PPE selectivity is 822.

As to `CCCCCCCC[C@@H]1NC(=O)[C@@H]2CCCN2C(=O)[C@H]2CCCN2C(=O)[C@H]([C@@H](C)O)NC(=O)[C@H](CCCCN)NC(=O)[C@H](CCC(N)=O)NC(=O)[C@@H]2CCCN2C(=O)CN(CCC(=O)O)C(=O)[C@H]([C@@H](C)CC)NC(=O)[C@H](CO)NC(=O)[C@H](C)NC(=O)[C@H]([C@@H](C)O)NC(=O)[C@H](CCC(=O)O)NC1=O` [Example 7, Cyclo(-OctGly-Glu-Thr-Ala-Ser-Ile-Nglu-Pro-Gln-Lys-Thr-^DPro-Pro-)] (cyclo([Gly(octyl)]ETASI[N(CH2CH2COOH)Gly]PQKT[dP]P)), the IC50 in assay [1] was 0.0133 µM. On human proteinase 3, the hNE/hPr3 selectivity was found to be 305 and the IC50 is 4.06 µM. Besides, in assay [2], the hNE/PPE selectivity was 295 and the IC50 was 3.92 µM.

With `CCCCCCCC[C@@H]1NC(=O)[C@H](C)NC(=O)[C@@H](C)NC(=O)[C@H]([C@@H](C)O)NC(=O)[C@H](CCCCN)NC(=O)[C@H](CCC(N)=O)NC(=O)[C@@H]2CCCN2C(=O)[C@@H]2CCCN2C(=O)[C@H]([C@@H](C)CC)NC(=O)[C@H](CO)NC(=O)[C@H](C)NC(=O)[C@H]([C@@H](C)O)NC(=O)[C@H](CCC(=O)O)NC1=O` [Example 20, Cyclo(-OctGly-Glu-Thr-Ala-Ser-Ile-Pro-Pro-GI n-Lys-Thr-^DAla-Ala-)] (cyclo([Gly(octyl)]ETASIPPQKT[dA]A)), the IC50 in assay [1] was found to be 0.0133 µM. On human proteinase 3, the hNE/hPr3 selectivity is 669 and the IC50 came to 8.9 µM. Further, in assay [2], the hNE/PPE selectivity was determined as 2128 and the IC50 worked out at 28.3 µM.

Values taken from patent US10273267B2, “Beta-hairpin peptidomimetics as selective elastase inhibitors” (POLYPHOR AG, priority 2013, dated 2019).
